Data published in patent US20080199847A1, “Method for Predicting the Metabolism of Drug in Human Liver and Liver Function” (Daiichi Pure Chemicals Co., Ltd., priority 2004, published 2008).
Where “and” joins values, the source holds several entries; their conditions need not be identical. Equal entries are not always repeated.

Test: Radioactivity levels of tissue and plasma samples two hours after administration
Conditions: 5 mg/kg iv
Method: Chimeric mice from PhoenixBio Co., Ltd. were employed.
The pH of the solution was adjusted to 7.0 with a 0.1% aqueous citric acid solution, and the concentration was adjusted to 1 mg/mL with distilled water for injection. The liquid was bolus-administered at 5 mL/kg to the caudal vein of the mice (5 mg/5 mL/kg).
Livers and kidneys were taken from other mice two hours after administration, following sacrificing through exsanguination. Blood plasma was collected by sampling blood through the orbital venousplexus and centrifuging it. Bile was collected from the chimeric mice and the control mice through bile duct cannulation until 72 hours after administration.
Radioactivity of each sample was determined by use of a liquid scintillator (Hionic-flow, product of Perkin-Elmer) with Tri-Carb 2500 (Perkin-Elmer) as a liquid scintillation counter. The measurement was performed for two minutes.
In analysis of blood plasma, bile, and urine, the sample (10 μL) was collected in a 20-mL glass vial, added Hionic-flow (10 mL), and the mixture was analyzed.
In analysis of tissue samples (liver and kidney), an amount 3-fold (by weight) of acetate buffer (0.1M, pH3.0) was added to each sample, and the mixture was homogenized with a polytron-homogenizer. An aliquot (50 μL) of the homogenate was solubilized with 2 mL of Soluene 350 (Perkin-Elmer), added Hionic-flow (10 mL), and the mixture was analyzed.

SMILES: CC(C(=O)O)c1cccc(C(=O)c2ccccc2)c1 (centres unmarked) [ketoprofen, Ketoprofen]
- Concentration (radioactivity level), kidney (chimeric mice): 5.03±1.25 μg eq./mL and 5.03 μg eq./mL
- Concentration (radioactivity level), kidney (control mice): 4.70±0.61 μg eq./mL and 4.70 μg eq./mL
